According to patent US6891069B1, “Synthesis of 4-substituted phthalaldehyde” (Ethicon, Inc., priority 2004, dated 2005):
Where a name gives a salt, the structure may show the parent alone. Read-outs that look alike come from different tables or passages of the source. One block for each compound: values may come before it.

Legend:
solubility in water = settings: for Concentration, Saturated: saturated aqueous germicidal solution, pH not adjusted
[1] = system: Mycobacterium terrae bacteria; assay: bacterial suspension test; type: cell-based; settings: for Germicidal Efficacy: summary Table 14
Experimental: In Examples 1 to 3, which follow, several germicidal solutions containing either the 4-fluoro-, 4-chloro-, or 4-bromo-phthalaldehyde compound were tested to determine their effectiveness in killing at least 1×10^6/mL of Mycobacterium terrae bacteria using a bacterial suspension test. The bacterial suspension test that was employed is described in Section VII.
The solutions were prepared by adding the appropriate amounts of the germicidal compounds to an aqueous solution. Unless otherwise mentioned all concentrations reported herein are expressed in (w/v)%. The pH of the solution was not adjusted. The tests were conducted at a temperature of about 20° C. (room temperature). The results are presented in terms of log reductions/mL. It is understood that these examples, as well as the other examples herein, are to be construed as merely illustrative, and not limiting.
In this test method, 9 mL of the germicide to be tested is placed in a tube, put into a water bath and allowed to come to the desired temperature. One mL of the test organism, including at least 7 logs/mL of Mycobacterium terrae bacteria, is added to the 9 mL of the germicide to be tested. […] It will be appreciated by those skilled in the art that other concentrations may be utilized by proper dilution and accounting.
At appropriate time intervals, 1 mL aliquots of the germicide-cell suspension were removed and added directly into 9 mL of a 1% glycine solution (neutralizer) and mixed thoroughly to neutralize the germicide in the transferred suspension. The glycine solution was prepared from solid glycine, which is available from VWR Scientific Products, among others. The above-identified 10 mL neutralized solution was then poured through a membrane filter having an average pore size of 0.45 micrometers. The filter was then rinsed twice with at least 150 mL of the 1% glycine solution per rinse. The filter was then placed on an agar plate and incubated for twenty-one days at 37° C. In the above procedure, if dilution was needed, then the 1 mL germicidal-cell suspension was diluted in 99 mL of a phosphate buffer before addition to the 9 mL of the 1% glycine solution. The phosphate buffer was DiLu-LoK™ Butterfields Phosphate Buffer, available from Hardy Diagnostics, of Santa Maria, Calif.
The surviving colonies are then counted. The data is plotted as S/So vs. time. So is the initial count of the bacteria in the above 10 mL solution which is at least 10^6 bacteria/mL, and S is the surviving bacteria from the above filter on the agar plate. The results of the experiments were presented in terms of log reductions. Log reduction is the difference between log(So) and log(S). As one example, if log(So)=6.2, and if there were 100 survivors, then the log(S)=2, and the log reduction was reported as 4.2.

Compound: 4-pyridinyl-propanedial
Concentration, Saturated (solubility in water): (˜2.3%) w/v % | Log Reductions/mL ([1]; Saturated (˜2.3% w/v), 5 min, 20° C.): 4.0 log reductions/mL

Compound: O=CC(c1ccccc1)C(O)S(=O)(=O)[O-].[Na+] (stereo not shown) [1-hydroxy-3-oxo-2-phenyl-propane-1-sulfonic acid, sodium salt]
Log Reductions/mL ([1]; 0.6%, 20° C., 60 min, sodium salt): Total Kill | Log Reductions/mL ([1]; 2.5%, 20° C., 10 min, sodium salt): Total Kill | Log Reductions/mL ([1]; 2.5%, 20° C., 30 min): Total Kill | Log Reductions/mL ([1]; 9.4%, 20° C., 30 min): Total Kill | log reduction at 0.6 % ([1]; Mycolicibacter terrae, 0.25 h, 0.6%, 20° C., 15 min, read-out: Log Reductions/mL): 2.4 | log reduction at 0.6 % ([1]; Mycolicibacter terrae, 0.5 h, 0.6%, 20° C., 30 min, read-out: Log Reductions/mL): 3.5

Compound: O=CC(c1nc2ccccc2o1)C(O)S(=O)(=O)O (stereo not shown) [2-benzooxazol-2-yl-1-hydroxy-3-oxo-propane-1-sulfonic acid, sodium salt]
log reduction at 11.1 % ([1]; Mycolicibacter terrae, 1 h, 11.1%, 20° C., 60 min, read-out: Log Reductions/mL): 5

Compound: O=CC(C=O)c1cccc(C(=O)O)c1[N+](=O)[O-] [3-(1-formyl-2-oxoethyl)-2-nitro-benzoic acid]
Concentration, Saturated (solubility in water): (˜2.1%) w/v %

Compound: O=Cc1ccc(Br)cc1C=O [4-bromo-phthalaldehyde]
Log Reductions/mL ([1]; 0.1%, 20° C., 30 minutes): Total Kill | log reduction at 0.1 % ([1]; Mycolicibacter terrae, 10 min, 0.1%, 20° C., 10 minutes, read-out: Log Reductions/mL): 5.6

Compound: O=Cc1ccc(Cl)cc1C=O [4-chloro-phthalaldehyde]
Log Reductions/mL ([1]; 2.7 w/v % in 20% isopropanol, 20° C., 5 min): Total Kill | log reduction at 0.2 % ([1]; Mycolicibacter terrae, 5 min, 0.2 w/v %, 20° C., 5 min, read-out: Log Reductions/mL): 5.9

Compound: O=Cc1ccc(F)cc1C=O [4-fluoro-phthalaldehyde]
Log Reductions/mL ([1]; 0.25%, 20° C., 60 minutes): Total Kill | log reduction at 0.25 % ([1]; Mycolicibacter terrae, 0.5 h, 0.25%, 20° C., 30 minutes, read-out: Log Reductions/mL): 5.6

Compound: O=Cc1ccccc1C(O)S(=O)(=O)[O-].[Na+] (stereo not shown) [(2-formyl-phenyl)-hydroxy-methane sulfonic acid, sodium salt]
Log Reductions/mL ([1]; 9.1%, 20° C., 5 min, listed as (2-formyl-phenyl)-hydroxy-methane sulfonate, sodium salt): confluent | Log Reductions/mL ([1]; 9.1%, 20° C., 5 min, listed as H-SULF, sodium salt): Confluent | log reduction at 8.9 % ([1]; Mycolicibacter terrae, 0.5 h, 20° C., 30 min, read-out: Log Reductions/mL): 2 | log reduction at 8.9 % ([1]; Mycolicibacter terrae, 1 h, 20° C., 60 min, read-out: Log Reductions/mL): 3.5 | log reduction at 8.9 % ([1]; Mycolicibacter terrae, 2 h, 20° C., 120 min, read-out: Log Reductions/mL): 5.7

Compound: O=Cc1cccc(C=O)c1 [IPA, isophthalaldehyde, reference compound]
Log Reductions/mL ([1]; 0.3%, dissolved in 20% isopropanol, 20° C., 5 min (Table 11)): Confluent | Log Reductions/mL ([1]; 0.3%, dissolved in 20% isopropanol, 20° C., 5 min (Table 15)): Confluent | Germicidal Efficacy [1]: Poor

solubility in water (solubility in water): about 5 % by weight
Compound: O=Cc1ccccc1C=O [OPA, phthalaldehyde]
log reduction at 0.08 % ([1]; Mycolicibacter terrae, 0.5 h, 0.08%, 20° C., 30 min, read-out: Log Reductions/mL): 3.1 | log reduction at 0.1 % ([1]; Mycolicibacter terrae, 0.5 h, 0.10%, 20° C., 30 min, read-out: Log Reductions/mL): 3.4 | log reduction at 0.14 % ([1]; Mycolicibacter terrae, 0.5 h, 0.14%, 20° C., 30 min, read-out: Log Reductions/mL): 5.8 | Germicidal Efficacy [1]: Good

Compound: O=Cc1ccc(C=O)cc1 [TPA, terephthaladehyde, reference compound]
Log Reductions/mL ([1]; 0.2%, dissolved in 20% isopropanol, 20° C., 5 min): Confluent | Germicidal Efficacy [1]: Poor

solubility in water (solubility in water): about 1%
Compound: O=CC(C=O)c1ccccc1 [phenyl-propanedial]
Log Reductions/mL ([1]; 0.4%, 20° C., 60 min): Total Kill | Log Reductions/mL ([1]; 0.7%, 20° C., 15 min): Total Kill | kill ([1]; 1% solution, 5 minutes, 20° C.): more than 4 logs | log reduction at 0.3 % ([1]; Mycolicibacter terrae, 1 h, 0.3%, 20° C., 60 min, read-out: Log Reductions/mL): 3.7 | log reduction at 0.33 % ([1]; Mycolicibacter terrae, 1 h, 0.33%, 20° C., 60 min, read-out: Log Reductions/mL): 3.7
